Data taken from patent EP0701561B1, “DESOXYAZAPHOSPHOLIPID DERIVATIVES HAVING INHIBITING ACTIVITY ON PHOSPHOLIPASE A2” (LABORATORIOS MENARINI S.A., priority 1993, dated 1994).

system: carrageenin plantar oedema; experiment: Antiinflammatory activity, inhibition of the carrageenin plantar oedema in the rat; assay type: in vivo, male Sprague-Dawley rats; details: intravenously, dose 2.5 mg/Kg, paw volume 3 hours after carrageenin
Description: The antiinflammatory action of the compounds of the present invention is determined by a standard test based on the procedure by Winter C.A. et al. (Proc. Soc. Exp. Biol. Med., 111, 544 (1962)). In this test, male Sprague-Dawley rats of 90-110 g are used, which are randomized in groups of 5 animals. The compound under test is administered intravenously in the tail lateral vein. The compound is suspended in Tween 20 (2-3% final concentration) and physiological serum is added to obtain a solution of the desired concentration of the compound, the administered volume being 2.5 ml/kg. Immediately after the injection of the compound, a subplantar injection of 0.1 ml of 1% carrageenin in physiological serum is performed in the right paw of the rat. In each test, a control group is systematically used, which is administered with the vehicle only. The paw inflammation is evaluated by measuring its volume with a water plethysmograph 1, 3 and 6 hours after inducing the inflammation. The determination of the inhibition percentage of the inflammation is calculated by the following formula: % Inhibition = (1 - A/B) x 100 [formula] wherein A is the average of the swelling volume in the group of treated animals and B is the average of the swelling volume in the control group.
For comparison purposes, the inhibition values of indomethacin and ketoprofen are also included as reference. The inhibition value found for Compound A, a structural analogous of the compounds described in the present patent, is also shown.

Row | Molecule | % Inhibition (3 hours) [%]
1 | CCCCCCCCCCS(=O)(=O)NC(CCCCCC)COP(=O)(O)OCCOCc1ccccc1 (stereo not shown) [Compound 26, 2-Decanesulfonylaminooctanol-1-phospho-2-benzyloxyethanol] | 26

same assay, conditions: intravenously, dose 5 mg/Kg, paw volume 3 hours after carrageenin

Row | Molecule | % Inhibition (3 hours) [%]
2 | COc1ccc2c(c1)c(CC(=O)O)c(C)n2C(=O)c1ccc(Cl)cc1 [Indomethacin, indomethacin, reference compound] | 37
3 | (R)-2-Decanesulfonylaminohexanol-1-phospho-2-benzyloxyethanol [Compound 29] | 27
4 | CCCCCCCCCCS(=O)(=O)N[C@H](CCCCCC)COP(=O)(O)OCCOCc1ccccc1 [Compound 27, (R)-2-Decanesulfonylaminooctanol-1-phospho-2-benzyloxyethanol] | 36
5 | CCCCCCCCCCS(=O)(=O)N[C@@H](CCCCCC)COP(=O)(O)OCCOCc1ccccc1 [Compound 28, (S)-2-Decanesulfonylaminooctanol-1-phospho-2-benzyloxyethanol] | 19
6 | CCCCCCC(COP(=O)(O)OCCOCc1ccccc1)NS(=O)(=O)CCCc1ccccc1 (stereo not shown) [Compound 32, 2-(3-Phenylpropanesulfonylamino)octanol-1-phospho-2-benzyloxyethanol] | 35
7 | CCCCCCCCCCS(=O)(=O)NC(CCCCCC)COP(=O)(O)CCCCc1ccccc1 (stereo not shown) [Compound 38, 2-Decanesulfonaminooctyl (4-phenylbutyl)phosphonate] | 23
8 | CC(C(=O)O)c1cccc(C(=O)c2ccccc2)c1 (stereo not shown) [Ketoprofen, ketoprofen, reference compound] | 37
9 | CCCCCCCCCCCC(=O)NC(CCCCCC)COP(=O)(O)CCCC (stereo not shown) [Compound 39, 2-Dodecanoylaminooctyl butylphosphonate] | 17
10 | (S)-2-Decanesulfonylaminohexanol-1-phospho-2-benzyloxyethanol [Compound 30] | 12
11 | CCCCCCCCCCS(=O)(=O)NC(CCCCCC)COP(=O)(O)OCCOCc1ccccc1 (stereo not shown) [Compound 26, 2-Decanesulfonylaminooctanol-1-phospho-2-benzyloxyethanol] | 37

same assay, conditions: intravenously, dose 10 mg/Kg, paw volume 3 hours after carrageenin

Row | Molecule | % Inhibition (3 hours) [%]
12 | CCCCCCCCCCCC(=O)NC(CCCCCC)COP(=O)(O)OCCOCc1ccccc1 (stereo not shown) [Compound A, 2-dodecanoylaminooctanol-1-phospho-2-benzyloxyethanol, reference compound] | 14
13 | CCCCCCCCCCS(=O)(=O)NC(CCCCCC)COP(=O)(O)OCCOCc1ccccc1 (stereo not shown) [Compound 26, 2-Decanesulfonylaminooctanol-1-phospho-2-benzyloxyethanol] | 41
